# Measurements as given in patent US20110152089A1, “HERBICIDAL COMPOSITIONS COMPRISING FLUFENACET” (Bayer CropScience AG, priority 2009, published 2011).
# Columns and labels:
# HORVS [1] = experiment: PE application with different irrigation, crop selectivity, greenhouse (Table 4); assay type: in vivo, Hordeum vulgare, summer barley; settings: g of AS/ha: (A) 90, (B) 300, (C) 140, (A)+(B)+(C) 90 + 300 + 140
# Experimental: (§1) In the standard design of the test, seeds of various broad-leaved weed and weed grass biotypes (origins) were sown in a 8-13 cm diameter pot filled with natural soil of a standard field soil (loamy silt; non-sterile) and covered with a covering soil layer of about 1 cm. The pots were then cultivated in a greenhouse (12-16 h of light, temperature day 20-22° C., night 15-18° C.) until the time of application. The pots were treated on a laboratory track sprayer with spray liquors comprising the compositions according to the invention, mixtures of the prior art or components used individually. Application of the active compounds or active compound combinations formulated as WG, WP, EC or otherwise was carried out at the appropriate growth stages of the plants. The application rate for the spray application was 100-600 l of water/ha. After the treatment, the plants were returned to the greenhouses.
# (§2) About 3 weeks after the application, the soil action or/and foliar action was assessed visually according to a scale of 0-100% in comparison to an untreated comparative group: 0%=no noticeable effect compared to the untreated comparative group; 100%=full effect compared to the untreated comparative group.
# (§3) (notes: the term “seeds” also includes vegetative propagation forms such as, for example, rhizome pieces; abbreviations used: h light=hours of illumination, g of AS/ha=gram of active substance per hectare, l/ha=liter per hectare, S=sensitive, R=resistant) • 1. Pre-emergence action against weeds: seeds of various broad-leaved weed and weed grass biotypes (origins) were sown in a 8-13 cm diameter pot filled with natural soil of a standard field soil (loamy silt; non-sterile) and covered with a covering soil layer of about 1 cm. The pots were then cultivated in a greenhouse (12-16 h of light, temperature day 20-22° C., night 15-18° C.) until the time of application. The pots were treated at the BBCH stage 00-10 of the seeds/plants on a laboratory track sprayer with spray liquors comprising the compositions according to the invention, mixtures or components used individually, as WG, WP, EC or other formulations. The application rate for the spray application was 100-600 l of water/ha. After the treatment, the plants were returned to the greenhouses and, when required, treated with fertilizer and watered. • 2. Post-emergence action against weeds: seeds of various broad-leaved weed and weed grass biotypes (origins) were sown in a 8-13 cm diameter pot filled with natural soil of a standard field soil (loamy silt; non-sterile) and covered with a covering soil layer of about 1 cm. The pots were then cultivated in a greenhouse (12-16 h of light, temperature day 20-22° C., night 15-18° C.) until the time of application. The pots were treated at various BBCH stages between 11-25 of the seeds/plants, i.e. generally between two to three weeks after the start of the cultivation, on a laboratory track sprayer with spray liquors comprising the compositions according to the invention, mixtures or components used individually, as WG, WP, EC or other formulations. The application rate for the spray application was 100-600 l of water/ha. After the treatment, the plants were returned to the greenhouses and, when required, treated with fertilizer and watered. • 3. Pre-emergence action against weeds with and without incorporation of active compound: seeds of various broad-leaved weed and weed grass biotypes (origins) were sown in a 8-13 cm diameter pot filled with natural soil of a standard field soil (loamy silt; non-sterile). […]
# MATCH [2] = experiment: PE application with different irrigation, greenhouse (Table 4); assay type: in vivo, Matricaria chamomilla; settings: g of AS/ha: (A) 90, (B) 300, (C) 140, (A)+(B)+(C) 90 + 300 + 140
# Experimental: as §1, §2, §3
# AVEFA [3] = experiment: as above; assay type: in vivo, Avena fatua; settings: g of AS/ha: (A) 90, (B) 300, (C) 140, (A)+(B)+(C) 90 + 300 + 140
# Experimental: as §1, §2, §3
# STEME [4] = experiment: Activity with different soil types, greenhouse (Table 5); assay type: in vivo, Stellaria media; settings: g of AS/ha: (A) 90, (B) 300, (C) 140, (A)+(B)+(C) 90 + 300 + 140; for activity STEME IU soil: IU soil (loamy silt standard field soil); for activity STEME IU/EC73 soil: IU/EC73 soil (heavy soil, higher organic substance)
# Experimental: as §1, §2, §3
# TRZAW = experiment: Different soil pH, PE application, crop selectivity, greenhouse (Table 8); assay type: in vivo, Triticum aestivum, winter wheat; settings: for activity TRZAW pH 7.4 (crop plant): soil pH 7.4, g of AS/ha: (A) 90, (B) 300, (C) 140, (A)+(B)+(C) 90 + 300 + 140; for activity TRZAW pH 8.4 (crop plant): soil pH 8.4, g of AS/ha: (A) 90, (B) 300, (C) 140, (A)+(B)+(C) 90 + 300 + 140
# Experimental: as §1, §2, §3
# HORVS [5] = experiment: PE application vs pre-sowing application, crop selectivity, greenhouse (Table 3); assay type: in vivo, Hordeum vulgare, summer barley; settings: g of AS/ha: (A) 90, (B) 300, (C) 140, (A)+(B)+(C) 90 + 300 + 140
# Experimental: as §1, §2, §3
# HORVS [6] = experiment: PO application, crop selectivity, greenhouse (Table 2); assay type: in vivo, Hordeum vulgare, summer barley; settings: g of AS/ha: (A) 120, (B) 1200, (C) 140, (A)+(B)+(C) 120 + 1200 + 140, visual, about 3 weeks after application
# Experimental: as §1, §2
# (notes: the term “seeds” also includes vegetative propagation forms such as, for example, rhizome pieces; abbreviations used: h light=hours of illumination, g of AS/ha=gram of active substance per hectare, l/ha=liter per hectare, S=sensitive, R=resistant) • 1. Pre-emergence action against weeds: seeds of various broad-leaved weed and weed grass biotypes (origins) were sown in a 8-13 cm diameter pot filled with natural soil of a standard field soil (loamy silt; non-sterile) and covered with a covering soil layer of about 1 cm. The pots were then cultivated in a greenhouse (12-16 h of light, temperature day 20-22° C., night 15-18° C.) until the time of application. […]
# STEME [7] = experiment: PE soil application vs incorporation into the soil, greenhouse (Table 1); assay type: in vivo, Stellaria media; settings: g of AS/ha: (A) 90, (B) 300, (C) 70, (A)+(B)+(C) 90 + 300 + 70, visual, about 3 weeks after application
# Experimental: as §1, §2, §3
# LOLSS = experiment: Resistant biotypes, PE application, greenhouse (Table 6); assay type: in vivo, Lolium species; settings: g of AS/ha: (A) 90, (B) 300, (C) 140, (A)+(B)+(C) 120 + 600 + 140, iodosulfuron 10; for activity LOLSS resistant: resistant (EMR) biotype; for activity LOLSS sensitive: sensitive biotype
# Experimental: as §1, §2
# (§4) (notes: the term “seeds” also includes vegetative propagation forms such as, for example, rhizome pieces; abbreviations used: h light=hours of illumination, g of AS/ha=gram of active substance per hectare, l/ha=liter per hectare, S=sensitive, R=resistant) • 1. Pre-emergence action against weeds: seeds of various broad-leaved weed and weed grass biotypes (origins) were sown in a 8-13 cm diameter pot filled with natural soil of a standard field soil (loamy silt; non-sterile) and covered with a covering soil layer of about 1 cm. The pots were then cultivated in a greenhouse (12-16 h of light, temperature day 20-22° C., night 15-18° C.) until the time of application. The pots were treated at the BBCH stage 00-10 of the seeds/plants on a laboratory track sprayer with spray liquors comprising the compositions according to the invention, mixtures or components used individually, as WG, WP, EC or other formulations. The application rate for the spray application was 100-600 l of water/ha. After the treatment, the plants were returned to the greenhouses and, when required, treated with fertilizer and watered. • 2. Post-emergence action against weeds: seeds of various broad-leaved weed and weed grass biotypes (origins) were sown in a 8-13 cm diameter pot filled with natural soil of a standard field soil (loamy silt; non-sterile) and covered with a covering soil layer of about 1 cm. The pots were then cultivated in a greenhouse (12-16 h of light, temperature day 20-22° C., night 15-18° C.) until the time of application. […]
# STEME [8] = experiment: as above; assay type: in vivo, Stellaria media; settings: g of AS/ha: (A) 90, (B) 300, (C) 140, (A)+(B)+(C) 120 + 600 + 140, iodosulfuron 10; for activity STEME resistant: resistant biotype; for activity STEME sensitive: sensitive biotype
# Experimental: as §1, §2, §3
# VIOAR [9] = experiment: Activity with different soil types, greenhouse (Table 5); assay type: in vivo, Viola arvensis; settings: g of AS/ha: (A) 90, (B) 300, (C) 140, (A)+(B)+(C) 90 + 300 + 140; for activity VIOAR IU soil: IU soil (loamy silt standard field soil); for activity V18 VIOAR IU/EC73 soil: IU/EC73 soil (heavy soil, higher organic substance)
# Experimental: as §1, §2, §3
# MATCH [10] = experiment: Different soil pH, PE application, greenhouse (Table 8); assay type: in vivo, Matricaria chamomilla; settings: for activity MATCH pH 7.4: soil pH 7.4, g of AS/ha: (A) 90, (B) 300, (C) 140, (A)+(B)+(C) 90 + 300 + 140; for activity MATCH pH 8.4: soil pH 8.4, g of AS/ha: (A) 90, (B) 300, (C) 140, (A)+(B)+(C) 90 + 300 + 140
# Experimental: as §1, §2, §3
# AVEFA [11] = experiment: PE application vs pre-sowing application, greenhouse (Table 3); assay type: in vivo, Avena fatua; settings: g of AS/ha: (A) 90, (B) 300, (C) 140, (A)+(B)+(C) 90 + 300 + 140
# Experimental: as §1, §2, §4
# VIOAR [12] = experiment: PE soil application vs incorporation into the soil, greenhouse (Table 1); assay type: in vivo, Viola arvensis; settings: g of AS/ha: (A) 90, (B) 300, (C) 70, (A)+(B)+(C) 90 + 300 + 70, visual, about 3 weeks after application
# Experimental: as §1, §2, §4
# [13] = application 7 days prior to sowing
SMILES,activity HORVS (crop plant) (HORVS [1]; irrigation from above) [%],activity HORVS (crop plant) (HORVS [1]; irrigation from below) [%],activity MATCH (MATCH [2]; irrigation from above) [%],activity MATCH (MATCH [2]; irrigation from below) [%],activity AVEFA (AVEFA [3]; irrigation from above) [%],activity AVEFA (AVEFA [3]; irrigation from below) [%],activity STEME IU soil (STEME [4]) [%],activity STEME IU/EC73 soil (STEME [4]) [%],activity TRZAW pH 7.4 (crop plant) (TRZAW) [%],activity TRZAW pH 8.4 (crop plant) (TRZAW) [%],activity HORVS (crop plant) (HORVS [5]; PE application) [%],activity HORVS (crop plant) (HORVS [5]; [13]) [%],activity HORVS (crop plant) (HORVS [6]) [%],activity STEME (STEME [7]; PE application) [%],activity STEME (STEME [7]; incorporation into the soil) [%],activity LOLSS resistant (LOLSS) [%],activity LOLSS sensitive (LOLSS) [%],activity STEME resistant (STEME [8]) [%],activity STEME sensitive (STEME [8]) [%],activity VIOAR IU soil (VIOAR [9]) [%],also measured
"CSc1nnc(C(C)(C)C)c(=O)n1N [(C) metribuzin, 4-amino-6-(1,1-dimethyl-ethyl)-3-(methylthio)-1,2,4-triazin-5-(4H)-one]",80,10,0,60,30,30,75,5,70,80,30,20,70,75,0,70,70,98,100,50,activity V18 VIOAR IU/EC73 soil (VIOAR [9]): 0%; activity MATCH pH 7.4 (MATCH [10]): 100%; activity MATCH pH 8.4 (MATCH [10]): 98%; activity AVEFA (AVEFA [11]; PE application): 70%; activity AVEFA (AVEFA [11]; [13]): 0%; activity VIOAR (VIOAR [12]; PE application): 0%; activity VIOAR (VIOAR [12]; incorporation into the soil): 10%
"CCCN(CCC)c1c([N+](=O)[O-])cc(C(F)(F)F)cc1[N+](=O)[O-] [(B) trifluralin, 2,6-dinitro-N,N-dipropyl-4-(trifluoromethyl)benzenamine]",90,60,0,40,25,38,50,5,0,0,0,20,20,10,70,83,98,20,20,77,activity V18 VIOAR IU/EC73 soil (VIOAR [9]): 0%; activity MATCH pH 7.4 (MATCH [10]): 0%; activity MATCH pH 8.4 (MATCH [10]): 0%; activity AVEFA (AVEFA [11]; PE application): 0%; activity AVEFA (AVEFA [11]; [13]): 60%; activity VIOAR (VIOAR [12]; PE application): 50%; activity VIOAR (VIOAR [12]; incorporation into the soil): 0%
